Patent US20130145496A1, “FLAVIN ENZYME HAVING FLAVONOL 8-HYDROXYLASE ACTIVITY AND USE THEREOF” (SUNTORY HOLDINGS LIMITED, priority 2010, published 2013)

Key:
[1] = system: flavonol 8-hydroxylase (MFB088 crude enzyme); assay: Hydroxylase activity of MFB088 crude enzyme on flavonoid substrates (UPLC-TOF MS, ion trap MS/MS); format: biochemical, Lotus japonicus; conditions: 0.048 nmol substrate, FAD, NADPH, pH 7.0, 30° C., 15 minutes; product detected by UPLC-TOF MS / ion trap MS/MS; not detected in negative control
Experimental: The yeast cells were centrifuged and recovered, and then lysed using glass beads. The lysate was centrifuged at 8000×g for 10 minutes. The supernatant was recovered and further centrifuged at 15000×g for 10 minutes to give the crude enzyme fraction of the protein encoded by MFB088 (hereinafter referred to as the MFB088 crude enzyme).
MFB088 crude enzyme solution, 2 μl (containing 2.5 μg of proteins); 0.1 M KH2PO4/K2HPO4 solution (containing 0.4% ascorbic acid: pH 7.0), 88 μl; 0.048 nmol eriodictyol/5 […] of H2O; 0.001 nmol FAD and 0.48 nmol NADPH/5 μl of H2O.
NADPH was added to start the reaction. After the reaction proceeded at 30° C. for 15 minutes, 10 μl of glacial acetic acid was added to stop the reaction. An […] was further added to extract the phenol compound twice (the added […]: 70 μl and 50 μl). The organic layer was recovered and used as a sample (hereinafter referred to as “MFB088 crude enzyme reaction product”). The components were analyzed by UPLC-TOF MS and ion trap MS/MS.
For analysis of the MFB088 crude enzyme reaction product, Waters Acquity UPLC™ system (Waters Corporation) equipped with time-of-flight mass spectrometer LCT Premier (Waters Corporation, Massachusetts, USA) was used. The analysis was performed using an ACQUITY UPLC™ BEH C18 column (particle diameter of 1.7 μm, column size of 2.1 mm I.D.×100 mm, Waters Corporation) under the conditions of flow rate of 0.3 ml/min and column temperature at 40° C. Using solvent A (0.1% formic acid-acetonitrile) and solvent B (0.1% formic acid aqueous solution), the reaction product was eluted by linear gradient from 70% B in 0 minute to 70% A in 20 minutes. The reaction product was detected by the time-of-flight mass spectrometer in the cation detection mode set forth below: capillary voltage of 2500 V, sample cone of 100 V, desolvation temperature at 250° C., source temperature at 120° C., and nitrogen gas flow of 6001/hour.
The components of the MFB088 crude enzyme reaction product was analyzed by ion trap MS/MS. High performance liquid chromatography (HPLC) system Agilent 1200 series (Agilent Technologies, California, USA) equipped with ion trap mass spectrometer LTQ XL (Thermo Fisher Scientific, Massachusetts, USA) was used for the MS/MS analysis. HPLC was performed using a TSKgel ODS-80™ column (particle diameter of 5 μm, column size of 4.6 mm I.D.×150 mm, TOSOH, Japan) under the conditions of flow rate of 0.5 ml/min and column temperature at 40° C. Using solvent A (0.1% formic acid-acetonitrile) and solvent B (0.1% formic acid aqueous solution), the reaction product was eluted by linear gradient from 70% B in 0 minute to 85% A in 30 minutes. The reaction product was ionized by electrospray ionization method and cations were detected under the following conditions: spray voltage of 4.0 kV, capillary temperature at 300° C., nitrogen sheath of 40 units, and auxiliary gas of 15 units. In the MS/MS analysis of the reaction product [M+H]+, collision-induced dissociation (CID) was performed under the conditions below to detect the fragment peak: normalized collision energy of 35, activation Q of 0.25 and activation time for 30 ms.
MFB088 crude enzyme solution, 2 μl (containing 2.5 μg of proteins); 0.1 M KH2PO4/K2HPO4 solution (containing 0.4% ascorbic acid: pH 7.0), 88 μl; 0.048 nmoleriodictyol/5 μl of H2O; 0.001 nmol FAD and 0.48 nmol NADPH/5 μl of H2O.
MFB088 crude enzyme solution, 2 μl (containing 2.5 μg of protein); 0.1 M KH2PO4/K2HPO4 solution (containing 0.4% ascorbic acid: pH 7.0), 88 μl; 0.048 nmol luteolin/5 μl of H2O; 0.001 nmol FAD and 0.48 nmol NADPH/5 μl of H2O.
The reactivity requiring kaempferol and apigenin as substrates was analyzed. The reaction product was recovered in a manner similar to EXAMPLES described above and the components were analyzed by UPLC-TOF MS.

[2] = system: nuclear factor-κB (NF-κB); conditions: leading to cell apoptosis potentiation; cited from earlier work
[3] = system: low density lipoprotein receptor (LDLR); conditions: through activation of extracellular signal-regulated kinase (ERK); cited from earlier work

| SMILES | hydroxylation of substrate by the MFB088 crude enzyme [1] | effect on activation of NF-κB [2] | effect on LDLR [3] |
| --- | --- | --- | --- |
| O=c1cc(-c2ccc(O)cc2)oc2cc(O)cc(O)c12 [apigenin] | hydroxyl group is attached to apigenin | – | – |
| O=C1c2c(O)cc(O)cc2O[C@H](c2ccc(O)c(O)c2)[C@H]1O [dihydroquercetin] | two hydroxyl groups were attached | – | – |
| O=C1C[C@@H](c2ccc(O)c(O)c2)Oc2cc(O)cc(O)c21 [eriodictyol] | hydroxyl-substituted | – | – |
| O=c1c(O)c(-c2ccc(O)c(O)c2)oc2c(O[C@@H]3O[C@H](CO)[C@@H](O)[C@H](O)[C@H]3O)c(O)cc(O)c12 [gossypin, gossypetin-8-glucoside] | – | inhibits the activation of nuclear factor-κB (NF-κB) | upregulates low density lipoprotein receptor (LDLR) |
| O=c1c(O)c(-c2ccc(O)cc2)oc2cc(O)cc(O)c12 [kaempferol] | hydroxyl group is attached to kaempferol at position 8 | – | – |
| O=c1cc(-c2ccc(O)c(O)c2)oc2cc(O)cc(O)c12 [luteolin] | hydroxyl group is attached to luteolin | – | – |
| O=C1C[C@@H](c2ccc(O)cc2)Oc2cc(O)cc(O)c21 [naringenin] | two hydroxyl groups were attached | – | – |
| O=c1c(O)c(-c2ccc(O)c(O)c2)oc2cc(O)cc(O)c12 [quercetin] | substituted with hydroxyl group at position 8 and converted into gossypetin | – | – |
